{"source": "patent US20240277841A2", "about": "“HUMAN CHIMERIC ANTIGEN RECEPTOR NEUTROPHILS, COMPOSITIONS, KITS AND METHODS OF USE” (Purdue Research Foundation, priority 2020, published 2024)", "key": {"glioblastoma": {"system": "glioblastoma", "experiment": "Tumor lysis by CAR neutrophils with inhibitors", "assay_type": "cell-based", "conditions": "for glioblastoma viability: co-incubation with CAR neutrophils"}, "U87MG cells": {"system": "U87MG cells", "experiment": "Neutrophil infiltration of 3D tumor spheroids", "assay_type": "cell-based, human", "conditions": "pre-treating neutrophils", "method": "A 3-D biomimetic GBM model was constructed to mimic an in vivo tumor niche-like microenvironment with a dense, extracellular matrix and heterogeneous tumor cell subtypes.\nNeutrophil infiltration of 3D tumor spheroids. The 3D tumor spheroids were obtained using the hanging drop method. Briefly, U87MG cells were suspended in MEM medium with 10% FBS and 0.3% methylcellulose at 2×10^6 cells/mL and deposited onto an inverted lid of 96-well plate as an individual drop using a 20 μL pipettor. The cover lid was then placed back onto the PBS-filled bottom chamber and incubated at 37° C. and 5% CO2. The hanging drops were monitored daily until cell aggregates were formed in ˜5-7 days. Each cell aggregate was transferred to a single well of a 24-well plate for the substream analysis. To assess the tumor penetration capability of CLTX T-CAR neutrophils, 2×10^5 neutrophils/well were added to the wells of 24-well plate and incubated with the tumor spheroids. After co-incubation for 24 hours, the tumor spheroids were fixed and stained for CD45 and DAPI. For the cytotoxicity analysis, the mixture of neutrophils and tumor spheroids were stained with 1 μM Calcein-AM and 1 μM propidium iodide (PI). The stained cells were then imaged using a Leica DMi-8 fluorescent microscope."}, "tumor cells": {"system": "tumor cells", "experiment": "Phagocytosis of tumor cells by neutrophils with inhibitor", "assay_type": "cell-based", "conditions": "5 μM"}, "invertebrates": {"system": "invertebrates", "conditions": "cited from earlier work"}, "[1]": {"system": "glioblastomas and other tumors", "conditions": "cited from earlier work"}, "mammals": {"system": "mammals", "conditions": "cited from earlier work"}, "[2]": {"system": "neutrophil extracellular trap (NET) formation", "conditions": "3 μg/ml or more"}, "TGFβ": {"system": "TGFβ", "experiment": "hPSC differentiation: endothelial-to-hematopoietic transition", "assay_type": "cell-based, human", "conditions": "10 μM from day 4", "method": "H9 was obtained from WiCell and maintained on Matrigel- or iMatrix 511-coated plates in mTeSR plus medium according to a previously published method. For differentiation, hPSCs were dissociated with 1 mM EDTA and seeded onto iMatrix 511-coated, 24-well plates at a cell density between 10,000 and 80,000 cells/cm^2 in mTeSR plus medium with 5 μM Y27632 for 24 hours (day −1). At day 0, cells were treated with 6 μM CHIR99021 (CHIR) in DMEM medium supplemented with 100 μg/mL ascorbic acid (DMEM/Vc), followed by a medium change with LasR basal medium at day 1, day 2, and day 3 and the addition of 50 ng/ml VEGF to the medium from day 2 to day 4. At day 4, medium was replaced by Stemline II medium (Sigma) supplemented with 10 μM SB431542. After 2 days, SB431542-containing medium was aspirated, and cells were maintained in Stemline II medium with 50 ng/mL SCF and FLT3L. At day 9 and day 12, the medium was aspirated and changed to Stemline II medium containing 50 ng/mL SCF and FLT3L and 25 ng/mL GM-CSF. At day 15, floating cells were gently harvested and used for terminal neutrophil differentiation. The floating cells were cultured in Stemline II medium supplemented with GlutaMAX 100X, ExCyte (0.2%), human G-CSF (150 ng/mL), and Am580 retinoic acid agonist (2.5 μM). After three days, the same medium with all components and cytokines was added to the top of the existing culture. […]"}, "[3]": {"system": "day 15 myeloid progenitors", "experiment": "Myeloid progenitor monocyte/macrophage potential by flow cytometry", "assay_type": "cell-based, human", "conditions": "compared to GM-CSF", "method": "(§1) Differentiated cells were gently pipetted and filtered through a 70 or 100 μm strainer sitting on a 50 mL tube. The cells were then pelleted by centrifugation and washed three times with PBS−/− solution containing 1% BSA. The cells were stained with appropriately conjugated antibodies for 25 min at room temperature in the dark and analyzed in an Accuri C6 plus cytometer (Beckton Dickinson) after washing with BSA-containing PBS−/− solution. Flow Jo software was used to process the collected flow data.\nas §1, with “Flow cytometry analysis. Differentiated” for “Differentiated”, “twice” for “three times”, “bovine serum albumin (BSA).” for “BSA.”, “appropriate” for “appropriately”, “dark,” for “the dark”, “FlowJo” for “Flow Jo”"}}, "note": "Entries after “also recorded” stand apart in the source; their conditions may differ."}
{"molecule": "CC(=O)N[C@@H](CS)C(=O)O", "note": "[N-acetylcysteine]", "values": [{"measurement": "tumor lysis by CAR neutrophils", "setting": "glioblastoma", "result": "significantly blocked"}, {"measurement": "glioblastoma viability", "setting": "glioblastoma", "result": "higher viability"}]}
{"molecule": "C=C1[C@@H](C)[C@H]2[C@H](Cc3ccccc3)NC(=O)[C@]23[C@H](OC(C)=O)/C=C/[C@@](C)(O)C(=O)[C@@H](C)C/C=C/[C@H]3[C@@H]1O", "note": "[cytochalasin D]", "values": [{"measurement": "tumor lysis by CAR neutrophils", "setting": "glioblastoma", "result": "significantly blocked"}, {"measurement": "glioblastoma viability", "setting": "glioblastoma", "result": "higher viability"}, {"measurement": "effect on tumor cytotoxicity of CAR-neutrophils", "setting": "U87MG cells", "result": "significantly reduced"}, {"measurement": "effect on tumor-infiltrating activity of CAR-neutrophils", "setting": "U87MG cells", "result": "significantly reduced"}, {"measurement": "phagocytosis of tumor cells by neutrophils", "setting": "tumor cells", "result": "significantly reduced"}]}
{"molecule": "chlorotoxin [CLTX]", "values": [{"measurement": "toxicity to invertebrates", "setting": "invertebrates", "result": "highly toxic"}, {"measurement": "tumor binding", "setting": "[1]", "result": "binds selectively"}, {"measurement": "toxicity to mammals", "setting": "mammals", "result": "nontoxic"}]}
{"molecule": "CC(C)c1cccc(C(C)C)c1O", "note": "[propofol]", "values": [{"measurement": "tumor lysis by CAR neutrophils", "setting": "glioblastoma", "result": "significantly blocked"}, {"measurement": "NET formation in neutrophils", "setting": "[2]", "result": "significant decrease"}]}
{"molecule": "NC(=O)c1ccc(-c2nc(-c3ccc4c(c3)OCO4)c(-c3ccccn3)[nH]2)cc1", "note": "[SB431542]", "values": [{"measurement": "endothelial-to-hematopoietic transition (generation of CD45+CD43+ HSPCs)", "setting": "TGFβ", "result": "promoted endothelial-to-hematopoietic transition; also recorded: promoted EHT process"}]}
{"molecule": "G-CSF: recombinant human granulocyte colony-stimulating factor (protein, UniProt P09919 31-207, looked up) Granulocyte …: TPLGPASSLPQSFLLKCLEQVRKIQGDGAALQEKLVSECATYKLCHPEELVLLGHSLGIPWAPLSSCPSQALQLAGCLSQLHSGLFLYQGLLQALEGISPELGPTLDTLQLDVADFATTIWQQMEELGMAPALQPTQGAMPAFASAFQRRAGGVLVASHLQSFLEVSYRVLRHLAQP", "values": [{"measurement": "number of CD14+ monocytes/macrophages", "setting": "[3]", "result": "significantly decreased"}]}
{"molecule": "soluble MMP2: soluble matrix metallopeptidase 2 used to pre-treat neutrophils (protein, UniProt P08253 110-660, looked up) 72 kDa type IV collagenase: YNFFPRKPKWDKNQITYRIIGYTPDLDPETVDDAFARAFQVWSDVTPLRFSRIHDGEADIMINFGRWEHGDGYPFDGKDGLLAHAFAPGTGVGGDSHFDDDELWTLGEGQVVRVKYGNADGEYCKFPFLFNGKEYNSCTDTGRSDGFLWCSTTYNFEKDGKYGFCPHEALFTMGGNAEGQPCKFPFRFQGTSYDSCTTEGRTDGYRWCGTTEDYDRDKKYGFCPETAMSTVGGNSEGAPCVFPFTFLGNKYESCTSAGRSDGKMWCATTANYDDDRKWGFCPDQGYSLFLVAAHEFGHAMGLEHSQDPGALMAPIYTYTKNFRLSQDDIKGIQELYGASPDIDLGTGPTPTLGPVTPEICKQDIVFDGIAQIRGEIFFFKDRFIWRTVTPRDKPMGPLLVATFWPELPEKIDAVYEAPQEEKAVFFAGNEYWIYSASTLERGYPKPLTSLGLPPDVQRVDAAFNWSKNKKTYIFAGDKFWRYNEVKKKMDPGFPKLIADAWNAIPDNLDAVVDLQGGGHSYFFKGAYYLKLENQSLKSVKFGSIKSDWLGC", "values": [{"measurement": "effect on tumor cytotoxicity of CAR-neutrophils", "setting": "U87MG cells", "result": "significantly reduced"}, {"measurement": "effect on tumor-infiltrating activity of CAR-neutrophils", "setting": "U87MG cells", "result": "significantly reduced"}]}
